For the assay, the system named is HCV genotype-1a variant with glutamine 30 changed to glutamate in the NS5A protein. The assay is classed as cell-based. The conditions noted are these: test compound titrated with BMS-790052 fixed at 200 nM; genotype 1a Q30E replicon. Summed up:
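Synergy was assessed by combining several fixed amounts of an NS5A-targeting compound with a titration of the second compound of interest.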
For orientation: In antiviral work, replicon cells carry a viral genome segment that copies itself.

As for `CC(C)(C)[C@H](NC(=O)c1ccc(Cl)s1)c1nc(-c2ccc(-c3ccc(-c4c[nH]c([C@@H](NC(=O)c5ccc(Cl)s5)C(C)(C)C)n4)cc3)cc2)c[nH]1` [Compound N-65], the “Fold-Synergistic 1a (Q30E)” value is reported as greater than 100 fold.
Turning to `CC(C)(C)[C@H](NC(=O)c1c(F)cccc1Cl)c1nc(-c2ccc(-c3ccc(-c4c[nH]c([C@@H](NC(=O)c5c(F)cccc5Cl)C(C)(C)C)n4)cc3)cc2)c[nH]1` [Compound N-66], the “Fold-Synergistic 1a (Q30E)” value was greater than 100 fold.
Take `CC(C)CC(=O)N[C@@H](c1nc(-c2ccc(-c3ccc(-c4c[nH]c([C@H](NC(=O)CC(C)C)C(C)(C)C)n4)cc3)cc2)c[nH]1)C(C)(C)C` [Compound N-67]: the “Fold-Synergistic 1a (Q30E)” value is listed as greater than 10 fold.
As for `CC(C)[C@H](NC(=O)C(C)(C)C)c1nc(-c2ccc3c(c2)Cc2cc(-c4c[nH]c([C@@H](NC(=O)C(C)(C)C)C(C)C)n4)ccc2-3)c[nH]1` [Compound N-68], the “Fold-Synergistic 1a (Q30E)” value is greater than 100 fold.
Under `CC(C)[C@H](NC(=O)C1(C)CCCCC1)c1ncc(-c2ccc3c(c2)Cc2cc(-c4cnc([C@@H](NC(=O)C5(C)CCCCC5)C(C)C)[nH]4)ccc2-3)[nH]1.O=C(O)C(F)(F)F` [Compound N-69] stands greater than 100 fold; under `CC(C)[C@H](NC(=O)C1CCC(F)(F)CC1)c1ncc(-c2ccc3c(c2)Cc2cc(-c4cnc([C@@H](NC(=O)C5CCC(F)(F)CC5)C(C)C)[nH]4)ccc2-3)[nH]1.O=C(O)C(F)(F)F` [Compound N-70], greater than 100 fold; under `CC(C)[C@H](NC(=O)C1CC(F)(F)C1)c1ncc(-c2ccc3c(c2)Cc2cc(-c4cnc([C@@H](NC(=O)C5CC(F)(F)C5)C(C)C)[nH]4)ccc2-3)[nH]1.O=C(O)C(F)(F)F` [Compound N-71], greater than 100 fold.
Under `CC(C)[C@H](NC(=O)C1(C)CCCC1)c1ncc(-c2ccc3c(c2)Cc2cc(-c4cnc([C@@H](NC(=O)C5(C)CCCC5)C(C)C)[nH]4)ccc2-3)[nH]1.O=C(O)C(F)(F)F` [Compound N-72] stands greater than 100 fold.
For `CC(C)[C@H](NC(=O)c1cc(Cl)ccc1F)c1ncc(-c2ccc3c(c2)Cc2cc(-c4cnc([C@@H](NC(=O)c5cc(Cl)ccc5F)C(C)C)[nH]4)ccc2-3)[nH]1.O=C(O)C(F)(F)F` [Compound N-73], the “Fold-Synergistic 1a (Q30E)” value is given as greater than 100 fold.
Take `CC(C)[C@H](NC(=O)C(C)(C)C)c1nc(-c2ccc3c(c2)CCc2cc(-c4c[nH]c([C@@H](NC(=O)C(C)(C)C)C(C)C)n4)ccc2-3)c[nH]1` [Compound N-74]: the “Fold-Synergistic 1a (Q30E)” value is on record as greater than 100 fold.
Under `CC(C)[C@H](NC(=O)C(C)(C)F)c1ncc(-c2ccc3c(c2)CCc2cc(-c4cnc([C@@H](NC(=O)C(C)(C)F)C(C)C)[nH]4)ccc2-3)[nH]1.O=C(O)C(F)(F)F` [Compound N-75] stands greater than 100 fold.
Consider `CC(C)[C@H](NC(=O)c1cc(Cl)ccc1F)c1nc(-c2ccc3c(c2)CCc2cc(-c4c[nH]c([C@@H](NC(=O)c5cc(Cl)ccc5F)C(C)C)n4)ccc2-3)c[nH]1.O=C(O)C(F)(F)F` [Compound N-76], for which the “Fold-Synergistic 1a (Q30E)” value is greater than 100 fold.
Under `Cc1cc(-c2ccc(-c3c[nH]c([C@@H](NC(=O)C(C)(C)C)C(C)C)n3)cc2)ccc1-c1c[nH]c([C@@H](NC(=O)C(C)(C)C)C(C)C)n1` [Compound N-77] stands greater than 100 fold; under `Cc1cc(-c2ccc(-c3c[nH]c([C@@H](NC(=O)C4CC(F)(F)C4)C(C)C)n3)cc2)ccc1-c1c[nH]c([C@@H](NC(=O)C2CC(F)(F)C2)C(C)C)n1.O=C(O)C(F)(F)F` [Compound N-78], greater than 100 fold; under `Cc1cc(-c2ccc(-c3c[nH]c([C@@H](NC(=O)C4(C)CCCCC4)C(C)C)n3)cc2)ccc1-c1c[nH]c([C@@H](NC(=O)C2(C)CCCCC2)C(C)C)n1.O=C(O)C(F)(F)F` [Compound N-79], greater than 100 fold.
Under `Cc1cc(-c2ccc(-c3c[nH]c([C@@H](NC(=O)C4(C)CCCC4)C(C)C)n3)cc2)ccc1-c1c[nH]c([C@@H](NC(=O)C2(C)CCCC2)C(C)C)n1.O=C(O)C(F)(F)F` [Compound N-80] stands greater than 100 fold.
With `Cc1cc(-c2ccc(-c3c[nH]c([C@@H](NC(=O)c4c(F)cccc4Cl)C(C)C)n3)cc2)ccc1-c1c[nH]c([C@@H](NC(=O)c2c(F)cccc2Cl)C(C)C)n1.O=C(O)C(F)(F)F` [Compound N-81], the “Fold-Synergistic 1a (Q30E)” value was greater than 100 fold.
Under `Cc1cc(-c2ccc(-c3c[nH]c([C@@H](NC(=O)C4CCC(F)(F)CC4)C(C)C)n3)cc2)ccc1-c1c[nH]c([C@@H](NC(=O)C2CCC(F)(F)CC2)C(C)C)n1.O=C(O)C(F)(F)F` [Compound N-82] stands greater than 100 fold; under `Cc1cc(-c2ccc(-c3c[nH]c([C@@H](NC(=O)c4ccc(Cl)s4)C(C)C)n3)cc2)ccc1-c1c[nH]c([C@@H](NC(=O)c2ccc(Cl)s2)C(C)C)n1.O=C(O)C(F)(F)F` [Compound N-83], greater than 100 fold; under `Cc1cc(-c2ccc(-c3c[nH]c([C@@H](NC(=O)C4(C)CCC(F)(F)CC4)C(C)C)n3)cc2)ccc1-c1c[nH]c([C@@H](NC(=O)C2(C)CCC(F)(F)CC2)C(C)C)n1.O=C(O)C(F)(F)F` [Compound N-84], greater than 100 fold.
Under `COC(C)(C)C(=O)N[C@H](c1nc(-c2ccc(-c3ccc(-c4c[nH]c([C@@H](NC(=O)C(C)(C)OC)C(C)(C)C)n4)c(C)c3)cc2)c[nH]1)C(C)(C)C.O=C(O)C(F)(F)F` [Compound N-85] stands greater than 100 fold.
Under `Cc1cc(-c2ccc(-c3c[nH]c([C@@H](NC(=O)C(C)(C)C)C(C)(C)C)n3)cc2)ccc1-c1c[nH]c([C@@H](NC(=O)C(C)(C)C)C(C)(C)C)n1.O=C(O)C(F)(F)F` [Compound N-86] stands greater than 100 fold.
In the case of `COC(C)(C)C(=O)N[C@H](c1nc(-c2ccc(-c3ccc(-c4c[nH]c([C@@H](NC(=O)C(C)(C)OC)C(C)C)n4)c(F)c3)cc2)c[nH]1)C(C)C.O=C(O)C(F)(F)F` [Compound N-87], the “Fold-Synergistic 1a (Q30E)” value was greater than 100 fold.
Under `CC(C)[C@H](NC(=O)c1cc(Cl)ccc1F)c1nc(-c2ccc(-c3ccc(-c4c[nH]c([C@@H](NC(=O)c5cc(Cl)ccc5F)C(C)C)n4)c(F)c3)cc2)c[nH]1.O=C(O)C(F)(F)F` [Compound N-88] stands greater than 100 fold.
Under `CC(C)[C@H](NC(=O)C(C)(C)C)c1nc(-c2ccc(-c3ccc(-c4c[nH]c([C@@H](NC(=O)C(C)(C)C)C(C)C)n4)c(F)c3)cc2)c[nH]1.O=C(O)C(F)(F)F` [Compound N-89] stands greater than 100 fold; under `CC(C)[C@H](NC(=O)C(C)(C)F)c1nc(-c2ccc(-c3ccc(-c4c[nH]c([C@@H](NC(=O)C(C)(C)F)C(C)C)n4)c(F)c3)cc2)c[nH]1.O=C(O)C(F)(F)F` [Compound N-90], greater than 100 fold; under `CC(C)[C@H](NC(=O)C(C)(C)OCC(F)F)c1nc(-c2ccc(-c3ccc(-c4c[nH]c([C@@H](NC(=O)C(C)(C)OCC(F)F)C(C)C)n4)c(F)c3)cc2)c[nH]1.O=C(O)C(F)(F)F` [Compound N-91], greater than 100 fold.
Under `CC(C)[C@H](NC(=O)c1ccccc1F)c1nc(-c2ccc(-c3ccc(-c4c[nH]c([C@@H](NC(=O)c5ccccc5F)C(C)C)n4)c(F)c3)cc2)c[nH]1.O=C(O)C(F)(F)F` [Compound N-92] stands greater than 100 fold; under `CC(C)(C)C(=O)N[C@H](c1nc(-c2ccc(-c3ccc(-c4c[nH]c([C@@H](NC(=O)C(C)(C)C)C(C)(C)C)n4)c(F)c3)cc2)c[nH]1)C(C)(C)C.O=C(O)C(F)(F)F` [Compound N-93], greater than 100 fold; under `COC(C)(C)C(=O)N[C@H](c1nc(-c2ccc(-c3ccc(-c4c[nH]c([C@@H](NC(=O)C(C)(C)OC)C(C)(C)C)n4)c(F)c3)cc2)c[nH]1)C(C)(C)C.O=C(O)C(F)(F)F` [Compound N-94], greater than 100 fold.
Consider `CC(C)(C)[C@H](NC(=O)c1ccccc1F)c1nc(-c2ccc(-c3ccc(-c4c[nH]c([C@@H](NC(=O)c5ccccc5F)C(C)(C)C)n4)c(F)c3)cc2)c[nH]1.O=C(O)C(F)(F)F` [Compound N-95], for which the “Fold-Synergistic 1a (Q30E)” value is listed as greater than 100 fold.
Under `COC(C)(C)C(=O)N[C@H](c1nc(-c2ccc(-c3ccc(-c4c[nH]c([C@@H](NC(=O)C(C)(C)OC)C(C)C)n4)cc3F)cc2)c[nH]1)C(C)C.O=C(O)C(F)(F)F` [Compound N-96] stands greater than 100 fold; under `CC(C)[C@H](NC(=O)C(C)(C)F)c1nc(-c2ccc(-c3ccc(-c4c[nH]c([C@@H](NC(=O)C(C)(C)F)C(C)C)n4)cc3F)cc2)c[nH]1.O=C(O)C(F)(F)F` [Compound N-97], greater than 100 fold.
As to `CC(C)[C@H](NC(=O)C(C)(C)OCC(F)F)c1nc(-c2ccc(-c3ccc(-c4c[nH]c([C@@H](NC(=O)C(C)(C)OCC(F)F)C(C)C)n4)cc3F)cc2)c[nH]1.O=C(O)C(F)(F)F` [Compound N-98], the “Fold-Synergistic 1a (Q30E)” value was greater than 100 fold.
Under `CC(C)[C@H](NC(=O)c1cc(Cl)ccc1F)c1nc(-c2ccc(-c3ccc(-c4c[nH]c([C@@H](NC(=O)c5cc(Cl)ccc5F)C(C)C)n4)cc3F)cc2)c[nH]1.O=C(O)C(F)(F)F` [Compound N-99] stands greater than 100 fold; under `CC(C)[C@H](NC(=O)C(C)(C)C)c1nc(-c2ccc(-c3ccc(-c4c[nH]c([C@@H](NC(=O)C(C)(C)C)C(C)C)n4)cc3F)cc2)c[nH]1.O=C(O)C(F)(F)F` [Compound N-100], greater than 100 fold.
Take `CC(C)[C@H](NC(=O)C(C)(C)C)c1nc(-c2ccc(-c3ccc(-c4c[nH]c([C@@H](NC(=O)C(C)(C)C)C(C)C)n4)nc3)cc2)c[nH]1` [Compound N-101, N—((S)-2-methyl-1-(4-(4-(6-(2-((S)-2-methyl-1-pivalamidopropyl)-1H-imidazol-4-yl)pyridin-3-yl)phenyl)-1H-imidazol-2-yl)propyl)pivalamide]: the “Fold-Synergistic 1a (Q30E)” value was greater than 100 fold.
Under `COC(C)(C)C(=O)N[C@H](c1nc(-c2ccc(-c3ccc(-c4c[nH]c([C@@H](NC(=O)C(C)(C)OC)C(C)C)n4)cn3)cc2)c[nH]1)C(C)C.O=C(O)C(F)(F)F` [Compound N-102] stands greater than 100 fold.

(Values after patent US20160158200A1, “Combinations of Hepatitis C Virus Inhibitors” (priority 2013, published 2016).)
